Data published in patent US20260021119A1, “TETRACYCLINE DERIVATIVES” (ICM (INSTITUT DU CERVEAU ET DE LA MOELLE ÉPINIÈRE), priority 2022, published 2026).

Assays:
[1] = tested on: microglia cells (TNF α release under LPS); assay: Anti-inflammatory effect in microglia, TNF α release inhibition under LPS exposure; format: cell-based; conditions: for Anti inflammatory effects (IC 50 in μM): TNF α release inhibition under LPS exposure, determined graphically
Method: Microglia is in charge of the protection of the neurons. However, under stress conditions, microglia cells are responsible of inflammatory phenomena, leading eventually to the death of the neurons. The anti-inflammatory effects of 5 μM and 20 μM of compound of formula (B) presented in Example 1, of 5 μM and 20 μM of compound of formula (Ia) according to the present invention and of 50 μM of doxycycline (DOX) were evaluated, compared to the effect of 2.5 μM of dexamethasone (DEX). Microglia is in charge of the protection of the neurons. However, under stress conditions, microglia cells are responsible of inflammatory phenomena, leading eventually to the death of the neurons. The anti-inflammatory effects of 10 μM and 20 μM of compound of formula (C) (“10 μM (C)” and “20 μM (C)”) and of 10 μM and 20 μM of compound of formula (Ia) according to the present invention (“10 μM (Ia)” and “20 μM (Ia)”) were evaluated, compared to the effect of 2.5 μM of dexamethasone (“DEX”). The properties of tetracycline derivatives, including the compound of formula (Ia) according to the present invention, were compared regarding the neuroprotection, anti-inflammatory effects, anti-aggregant activity, and antibiotic activity. The properties were evaluated as described herein above. EC50s, IC50s determined graphically, *Rescue of dopamine neurons from spontaneous oxidative stress; ** TNF α release inhibition under LPS exposure, ^#Weak antibiotic activity on only 1 of the 3 bacterial strains (i.e. S aureus). ##Strong antibiotic activity on all 3 bacterial strains. ^###Significant antibiotic activity on two bacterial strains.

[2] = tested on: p-tau (phosphorylated tau protein at Ser202, Thr205 residues); assay: p-tau (AT8) expression in cultured cortical neurons under oxidative stress; format: cell-based, mouse; parameters: key to Reduction of the % of p-tau+ somas: a favorable response, synonymous with a decrease in the number of p-tau+ cell bodies; ++: a favorable response, synonymous with a decrease in the number of p-tau+ cell bodies; +++=reference level; an unfavorable response is represented by a sign “−”, synonymous with an elevation of the number of p-tau+ cell bodies; overexpression of p-tau in cortical cell bodies: dose or concentration left out as unconfirmed
Method: A culture model of cortical neurons from mouse embryonic brain was used, in which neuronal cells were subjected to a maturation step until day in vitro (div) 7, before being gradually exposed to phenol red formulated DMEM/Nutrient mixture F12 Ham supplemented with 20 μg/mL of insulin, and 2 μM of the NMDA receptor blocker MK-801 (DF12i).
Precisely, after 4 days of exposure to DF12i, between 10-15% of surviving neurons show a very strong AT8 immunosignal in their somas while only 1 to 1.5% of neuronal cell bodies are found immunopositive under conditions where oxidative stress is repressed by treatment with bovine apotransferrin (APO; 100 µg/mL, Sigma Aldrich), a glycoprotein with iron chelating properties. Likewise, overexpression of p-tau in cortical cell bodies is reduced by the two non-antibiotic tetracyclines compound of formula (C) ([…]) and compound of formula (Ib) ([…]): see the following Table: […]

E. faecalis ATCC 29212 = assay: MIC, broth dilution (Example 3); format: cell-based; conditions: Enterococcus faecalis, ATCC29212; 18 h at 37° C., MH broth
Method: (§1) Bacterial strains used in this study were: S. aureus (ATCC25923), E. coli (ATCC25922), E. faecalis (ATCC29212) and P. aeruginosa (PA01). Strains were maintained at −80° C. in 15% (v/v) glycerol for cryoprotection. Bacteria were routinely grown in Mueller-Hinton (MH) broth at 37° C.
(§2) The susceptibility of bacterial strains to antibiotics and compounds was determined in microplates using the standard broth dilution method in accordance with the recommendations of the Comité de 1′Antibiogramme de la Société Française de Microbiologie (CA-SFM). (Members of the SFM Antibiogram Committee, R. Int. J. Antimicrob. Agents 2003, 21, 364). Briefly, the Minimal Inhibitory Concentrations (MICs) were determined with an inoculum of 10^5 CFU in 200 μL of MH broth containing two-fold serial dilutions of each drug. […] To determine all MICs, the measurements were independently repeated in triplicate.
(§3) The compound of formula (Ia) according to the invention was tested against clinical isolates Gram-bacteria (P. aeruginosa, E. coli) and Gram+ bacteria (S. aureus, E. faecalis). Minimum inhibitory concentrations (MIC) were tentatively determined and compared to known antibiotic tetracyclines (doxycycline, demeclocycline, chlortetracycline) and to the compound of formula (B) disclosed in Example 1 of the present application. The test was reproduced twice and the average MIC were calculated.

P. aeruginosa PA01 = assay: MIC, broth dilution (Example 3); format: cell-based; conditions: Pseudomonas aeruginosa, 18 h at 37° C., MH broth
Method: as §1, §2, §3

E. coli ATCC 25922 = assay: MIC, broth dilution (Example 3); format: cell-based; conditions: Escherichia coli, ATCC25922; 18 h at 37° C., MH broth
Method: as §1, §2, §3

S. aureus ATCC 25923 = assay: MIC, broth dilution (Example 3); format: cell-based
Method: as §1, §2, §3

alpha-synuclein = alpha-synuclein (Homo sapiens, UniProt P37840); assay: alpha-synuclein fibrils by transmission electron microscopy (TEM); format: biochemical; conditions: 20 μM compound; vs alpha-synuclein alone
Method: By using transmission electron microscopy (TEM) we studied the alpha-synuclein aggregation in the presence of 20 μM of the compound of formula (Ia) in the same condition described above. For the samples mounting, 5 μL of a 7 μM alpha-synuclein solution were adsorbed onto a formvar carbon film coated copper grids (Electron Microscopy Sciences) and stained with uranyless.

[3] = 10 μM and 20 μM, compared to dexamethasone 2.5 μM

SMILES	anti-inflammatory effect (LPS) [1, 3]	Anti inflammatory effects (IC 50 in μM) [1]	overexpression of p-tau in cortical cell bodies [2]	Reduction of the % of p-tau+ somas ([2]; compounds 3 μM, APO 100 μg/mL, mouse cortical cultures exposed div 7-11 to DF12i)	anti-inflammatory effect (LPS) ([1]; 5 μM and 20 μM, superior to doxycycline 50 μM and compound of formula (B))	MIC (E. faecalis ATCC 29212)	MIC (P. aeruginosa PA01)	MIC (E. coli ATCC 25922)	activity on S. aureus compared with compound of formula (B) (S. aureus ATCC 25923)	MIC (S. aureus ATCC 25923; Staphylococcus aureus, ATCC25923, 18 h at 37° C., MH broth)	amount of alpha-synuclein fibril (TEM) (alpha-synuclein)
NC(=O)C1=C(O)CC2CC3C(=C(O)C2C1=O)C(=O)c1c(O)ccc(Cl)c1[C@H]3O (stereo partly shown) [Compound of formula (C)]	unable to counteract the inflammatory process	no	reduced	+++	–	–	–	–	–	–	–
C[C@H]1c2cccc(O)c2C(=O)C2=C(O)C3C(=O)C(C(N)=O)=C(O)C[C@@H]3[C@@H](O)[C@@H]21 (stereo partly drawn) [Compound of formula (Ia), (4aS,5R,5aR,6R)-3,5,10,12-tetrahydroxy-6-methyl-1,11-dioxo-1,4,4a,5,5a,6,11,12a-octahydrotetracene-2-carboxamide]	counteracts inflammatory process	yes	–	–	counteracts inflammatory process	> 200 µM	> 200 µM	> 200 µM	less active	> 200 µM	clearly decreases
